Measured values from ChEMBL document CHEMBL2150895, “Zizimauritic acids A-C, three novel nortriterpenes from Ziziphus mauritiana” (Bioorg Med Chem Lett, 2012).
≈ marks a conversion by molar mass, not a printed value. Calls of active or inactive are those of the source. The calls are words filed in the database; no cut-off is given here.

Assays:
[1] = test system: A549; assay: Cytotoxicity against human A549 cells; format: functional, cell-based
[2] = test system: BGC-823; assay: Cytotoxicity against human BGC823 cells; format: functional, cell-based
[3] = test system: HeLa; assay: Cytotoxicity against human HeLa cells; format: functional, cell-based
[4] = test system: Staphylococcus aureus; assay: Antibacterial activity against Staphylococcus aureus; format: functional, organism-based
[5] = test system: Candida albicans; assay: Antifungal activity against Candida albicans; format: functional, organism-based

Structure (SMILES) | IC50 [1] [µg/mL] | IC50 [2] [µg/mL] | IC50 [3] [µg/mL] | Activity [1] | Activity [2] | Activity [3] | Activity [4] | IC50 [4] [µg/mL] | IC50 [5] [µg/mL]
CC(=O)O[C@H]1C(=O)[C@@]2(C)[C@H]([C@H](OC(=O)c3ccccc3)[C@]3(O)C[C@H](OC(=O)[C@H](O)[C@@H](NC(=O)c4ccccc4)c4ccccc4)C(C)=C1C3(C)C)[C@]1(OC(C)=O)CO[C@@H]1C[C@@H]2O [PACLITAXEL] | 0.02 (≈ 0.0234 µM) | 0.01 (≈ 0.0117 µM) | 0.38 (≈ 0.445 µM) | – | – | – | – | – | –
C=C(C)[C@@H]1CC[C@]2(C(=O)O)CC[C@]3(C)[C@H](CC[C@@H]4[C@@]5(C)CC[C@H](O)C(C)(C)[C@@H]5CC[C@]43C)[C@@H]12 | – | – | – | inactive | inactive | inactive | inactive | – | –
CO[C@@H]1C[C@@]2(CC[C@]3(C(=O)O)[C@H](CC[C@@H]4[C@@]5(C)C=CC(C)(C)[C@@H]5CC[C@]43C)[C@H]2C=C(C)C)C(=O)O1 [ZIZIMAURITIC ACID B] | 5.05 (≈ 10.4 µM) | 6.24 (≈ 12.9 µM) | 5.36 (≈ 11.1 µM) | – | – | – | – | > 20 | > 10
C=C(C)[C@@H]1CC[C@]2(C(=O)O)CC[C@]3(C(=O)O)[C@H](CC[C@@H]4[C@@]5(C)C=CC(C)(C)[C@@H]5CC[C@]43C)[C@@H]12 [CEANOTHENIC ACID] | – | > 10 | 7.55 (≈ 16.6 µM) | – | – | – | – | > 20 | > 10
CC(C)=C[C@@H]1[C@H]2CC[C@@H]3[C@@]4(C)C=CC(C)(C)[C@@H]4CC[C@@]3(C)[C@]2(C(=O)O)CC[C@@]12CC(O)OC2=O (mixture of isomers) [ZIZIMAURITIC ACID C] | 11.9 | 10.1 | 9.25 | – | – | – | – | 12.8 | > 10
CC1(C)S[C@@H]2[C@H](NC(=O)[C@H](N)c3ccccc3)C(=O)N2[C@H]1C(=O)O [AMPICILLIN] | – | – | – | – | – | – | – | 0.04 (≈ 0.114 µM) | –
C=C(C)[C@@H]1CC[C@]2(C(=O)O)CC[C@]3(C)[C@H](CC[C@@H]4[C@@]5(C)[C@@H](C(=O)O)[C@H](O)C(C)(C)[C@@H]5CC[C@]43C)[C@@H]12 | – | – | – | inactive | inactive | inactive | inactive | – | –
CO[C@H]1C[C@@]2(CC[C@]3(C(=O)O)[C@H](CC[C@@H]4[C@@]5(C)C=CC(C)(C)[C@@H]5CC[C@]43C)[C@H]2C=C(C)C)C(=O)O1 [ZIZIMAURITIC ACID A] | 9.37 (≈ 19.3 µM) | 8.8 (≈ 18.2 µM) | 6.06 (≈ 12.5 µM) | – | – | – | – | 2.17 (≈ 4.48 µM) | > 10
Clc1ccc(COC(Cn2ccnc2)c2ccc(Cl)cc2Cl)c(Cl)c1.O=[N+]([O-])O (configuration not stated) [MICONAZOLE NITRATE] | – | – | – | – | – | – | – | – | 0.16
